Reference: the OPERA property sets (Mansouri et al. 2018)
Converted amounts (≈) assume the structure as drawn.

`O=C(O)CCCCCCNS(=O)(=O)c1ccccc1` showed a solubility (25 °C) of 8.97 mM (≈ 2560 µg/mL).
`O=C(O)c1cc(=O)nc(-c2ccccc2)[nH]1` showed a solubility of 6.15 mM (≈ 1330 µg/mL).
In the case of `O=C(O)c1occ(Cl)c1Cl`, the solubility (20 °C) is reported as 14.9 mM (≈ 2700 µg/mL).
Molecule `CC(=O)CC(CC(=O)O)c1ccccc1` (centres undefined) has a solubility (25 °C) of 35.8 mM (≈ 7380 µg/mL).
`O=C(O)CC1(CC(=O)O)OCOC1=O` showed a solubility of 245 mM (≈ 50000 µg/mL).
With `C[Si](C)(C)CN` the solubility was 17.3 mM (≈ 1790 µg/mL).
In the case of `CCOC(=O)c1[nH]c(C)cc1C`, the solubility (20 °C) is reported as 2.39 mM (≈ 400 µg/mL).
For `O=C(O)c1cc(Cl)ccc1O`, the solubility (20 °C) was 57.9 mM (≈ 10000 µg/mL).
In the case of `O=C(O)CCCNC(=O)c1ccccc1`, the solubility is reported as 62.7 mM (≈ 13000 µg/mL).
`CC1=CCCN1C` showed a solubility of 1340 mM (≈ 130000 µg/mL).
`C[C@@H](O)CCCC=O` showed a solubility of 344 mM (≈ 40000 µg/mL).
In the case of `N#CSc1ccc(N)cc1`, the solubility (25 °C) is reported as 2.5 mM (≈ 376 µg/mL).
`NC(=O)C(Br)(Br)Br` gave a solubility (20 °C) of 54.1 mM (≈ 16000 µg/mL).
In the case of `CCOc1nc(OCC)nc(OCC)n1`, the solubility (25 °C) is reported as 32.8 mM (≈ 7000 µg/mL).
In the case of `COCCCCC=O`, the solubility is reported as 2870 mM (≈ 333000 µg/mL).
Work on `CCC1OC(=O)c2cc([N+](=O)[O-])ccc21` (centres undefined) yielded a solubility (25 °C) of 2.82 mM (≈ 584 µg/mL).
Molecule `CCCCC(=O)NCCNC(=O)CCCC` has a solubility (25 °C) of 15.3 mM (≈ 3500 µg/mL).
Molecule `CCCc1nnc(NS(=O)(=O)c2ccc(N)cc2)s1` has a solubility (20 °C) of 0.493 mM (≈ 147 µg/mL).
`O=S(=O)(c1ccccc1O)c1ccccc1O` showed a solubility (23 °C) of 0.48 mM (≈ 120 µg/mL).
For `Ic1ccc2c(c1)Sc1ccccc1N2`, the solubility (20 °C) was 0.000118 mM (≈ 0.0384 µg/mL).
With `O=C(NNC(=O)c1ccccc1)c1ccccc1` the solubility (25 °C) was 25.8 mM (≈ 6200 µg/mL).
With `CCCOC(=O)CO[N+](=O)[O-]` the solubility (30 °C) was 11 mM (≈ 1800 µg/mL).
`O=P(O)(O)c1cccc2ccccc12` gave a solubility of 24 mM (≈ 5000 µg/mL).
In the case of `CC(=O)C(=Cc1ccccc1)CC(=O)O`, the solubility is reported as 24.5 mM (≈ 5000 µg/mL).
Molecule `CCc1nc2c(c(=O)n(C)c(=O)n2C)n1C` has a solubility (25 °C) of 27 mM (≈ 6000 µg/mL).
With `O=C(Nc1ccccn1)c1cccnc1` the solubility (25 °C) was 1.05 mM (≈ 210 µg/mL).
`CCOC(=O)CCc1ccccc1` showed a solubility (25 °C) of 1.23 mM (≈ 220 µg/mL).
`CC(C=NO)=NO` showed a solubility (26 °C) of 451 mM (≈ 46000 µg/mL).
With `O=c1ncc2[nH]cnc2[nH]1` the solubility (20 °C) was 19.3 mM (≈ 2630 µg/mL).
In the case of `CSCCC(C(=O)O)N(CCC#N)CCC#N` (racemic), the solubility (26 °C) is reported as 47 mM (≈ 12000 µg/mL).
`CCCCOc1cc(C(=O)NCCN(CC)CC)c2ccccc2n1` gave a solubility (21 °C) of 0.122 mM (≈ 42 µg/mL).
`O=C(O)CNC(=O)c1ccco1` showed a solubility (21 °C) of 187 mM (≈ 31700 µg/mL).
`CC1(C)OC(=O)c2cc3ccccc3cc21` gave a solubility of 1.04 mM (≈ 220 µg/mL).
`CCCn1c(=O)c2c(ncn2C)n(C)c1=O` showed a solubility (30 °C) of 61.9 mM (≈ 13800 µg/mL).
Work on `COc1ccc(OC)c([N+](=O)[O-])c1` yielded a solubility of 0.764 mM (≈ 140 µg/mL).
`CC(NC(N)=O)C(=O)O` (centres undefined) gave a solubility (20 °C) of 133 mM (≈ 17600 µg/mL).
Molecule `Cn1c(=O)cnc2cncnc21` has a solubility (20 °C) of 123 mM (≈ 20000 µg/mL).
`O=C(c1cccc2ccccc12)N(O)c1ccccc1` gave a solubility of 0.114 mM (≈ 30 µg/mL).
With `Cc1cccc(CO)c1` the solubility (25 °C) was 409 mM (≈ 50000 µg/mL).
`CCCCOC(=O)c1cccnc1` showed a solubility (25 °C) of 14.6 mM (≈ 2610 µg/mL).
Molecule `NC(=O)CBr` has a solubility (20 °C) of 1160 mM (≈ 160000 µg/mL).
`CN(C)c1cccc(S(=O)(=O)O)c1` gave a solubility (25 °C) of 1990 mM (≈ 400000 µg/mL).
With `CCSS(=O)(=O)CC` the solubility was 77.8 mM (≈ 12000 µg/mL).
Molecule `c1ccc2c(c1)-c1cccc3cc4c(ccc5ccccc54)c-2c13` has a solubility (27 °C) of 3.31e-06 mM (≈ 0.001 µg/mL).
`OCC(O)C1OC(Oc2ccccc2)C(O)C(O)C1O` (centres undefined) gave a solubility (20 °C) of 27.9 mM (≈ 8000 µg/mL).
Molecule `Cc1cc(C)c(C)c(C)n1` has a solubility of 49.3 mM (≈ 6670 µg/mL).
Work on `O=Cc1ccc(O)c(C(=O)O)c1` yielded a solubility (25 °C) of 2.32 mM (≈ 385 µg/mL).
`C/C=C\CC1(C/C=C/C)C(=O)NC(=O)NC1=O` gave a solubility (20 °C) of 6.35 mM (≈ 1500 µg/mL).
For `CCC(=O)OCc1ccc(Cl)cc1Cl`, the solubility (20 °C) was 0.858 mM (≈ 200 µg/mL).
In the case of `Cn1cc(I)ccc1=O`, the solubility is reported as 979 mM (≈ 230000 µg/mL).
Work on `CC(C)Cc1ncc[nH]1` yielded a solubility (20 °C) of 89.4 mM (≈ 11100 µg/mL).
`O=C1OCc2ccc(I)cc21` showed a solubility (25 °C) of 0.615 mM (≈ 160 µg/mL).
For `CC(=O)NC(NC(C)=O)c1ccccc1`, the solubility (20 °C) was 48.5 mM (≈ 10000 µg/mL).
`c1ccc2c(c1)Nc1ccc3ccccc3c1S2` showed a solubility (20 °C) of 0.000267 mM (≈ 0.0667 µg/mL).
Molecule `CC(C)C1CCC(=NO)C(=NO)C1` (centres undefined) has a solubility (25 °C) of 4.07 mM (≈ 750 µg/mL).
`Oc1ccc(-c2ccccc2)cc1O` gave a solubility of 8.59 mM (≈ 1600 µg/mL).
Work on `CC(=O)N[C@@H](CSc1ccc(Cl)c(Cl)c1)C(=O)O` yielded a solubility (20 °C) of 1.3 mM (≈ 400 µg/mL).
`O=C(O)C(=O)Nc1ccc(Cl)cc1Cl` gave a solubility (25 °C) of 5.29 mM (≈ 1240 µg/mL).
`N#Cc1cccc(N)c1` showed a solubility (20 °C) of 67.7 mM (≈ 8000 µg/mL).
For `COc1ccc(CO)cc1`, the solubility (20 °C) was 14.5 mM (≈ 2000 µg/mL).
With `Cn1cnc2c(=O)n(C)c(=O)n(C)c2c1=O` the solubility (20 °C) was 10.4 mM (≈ 2300 µg/mL).
In the case of `Nc1cc(S(=O)(=O)O)ccc1C(=O)O`, the solubility (25 °C) is reported as 48.3 mM (≈ 10500 µg/mL).
In the case of `CCCCCCCCCCNC(=O)C(C)O` (centres undefined), the solubility (25 °C) is reported as 0.436 mM (≈ 100 µg/mL).
`CCOC(=O)c1c(C(=O)O)ccc(OC)c1OC` gave a solubility of 5.58 mM (≈ 1420 µg/mL).
`CCOC(OCC)C(C)=O` gave a solubility of 622 mM (≈ 91000 µg/mL).
`NC(=O)c1cccc(S(N)(=O)=O)c1` showed a solubility (25 °C) of 6.99 mM (≈ 1400 µg/mL).
For `Cn1c(=O)c2nccnc2n(C)c1=O`, the solubility (20 °C) was 34.7 mM (≈ 6670 µg/mL).
For `CC1(C)OC(=O)c2cc([N+](=O)[O-])ccc21`, the solubility (25 °C) was 0.888 mM (≈ 184 µg/mL).
Work on `CC1(CCN2CCCCC2)NC(=O)NC1=O` (centres undefined) yielded a solubility (20 °C) of 151 mM (≈ 34000 µg/mL).
Molecule `COc1c(O)ccc(C=O)c1C` has a solubility (25 °C) of 42.1 mM (≈ 7000 µg/mL).
`O=C(O)c1cccc(C(=O)O)c1[N+](=O)[O-]` gave a solubility (25 °C) of 10.2 mM (≈ 2160 µg/mL).
Work on `O=C(O)CSCC(=O)O` yielded a solubility (25 °C) of 2660 mM (≈ 400000 µg/mL).
Molecule `CCC(CC)(CC(=O)O)C(=O)O` has a solubility (25 °C) of 160 mM (≈ 27900 µg/mL).
`Nc1ccc2snnc2c1` gave a solubility of 49.6 mM (≈ 7500 µg/mL).
Work on `NC(=O)N/N=C/[C@H](O)[C@@H](O)[C@@H](O)[C@H](O)CO` yielded a solubility (23 °C) of 222 mM (≈ 52700 µg/mL).
For `CCCCCCCCCOC(=O)c1cccnc1`, the solubility (25 °C) was 0.802 mM (≈ 200 µg/mL).
`CCCCCCCCOC(=O)c1cccnc1` gave a solubility (25 °C) of 0.807 mM (≈ 190 µg/mL).
With `COCc1ccc(C=O)o1` the solubility (20 °C) was 317 mM (≈ 44400 µg/mL).
For `CCC(C)[C@@H](NC(C)=O)C(=O)O` (mixture of isomers), the solubility (25 °C) was 177 mM.
In the case of `Cc1cc(C)c(C)cn1`, the solubility (25 °C) is reported as 165 mM (≈ 20000 µg/mL).
With `S=C=NCCc1ccccc1` the solubility (20 °C) was 0.674 mM (≈ 110 µg/mL).
`CC(NC(=O)C=CC(=O)O)C(=O)O` (centres undefined) gave a solubility of 107 mM (≈ 20000 µg/mL).
In the case of `CC(=O)c1cccs1`, the solubility (30 °C) is reported as 111 mM (≈ 14000 µg/mL).
Molecule `CC1(O)CCC(C)(O)CC1` (centres undefined) has a solubility of 243 mM (≈ 35000 µg/mL).
